Measurements as given in patent publication US10172830B2, “Pyrazolone compounds having human neutrophil elastase inhibitory properties” (CHIESI FARMACEUTICI S.P.A., priority 2016, dated 2019).

Target: T1, human neutrophil elastase (HNE) (Homo sapiens, UniProt P08246)
T1 construct: purchased Sigma E8140
T1 sequence (P08246 30-247 limits assumed): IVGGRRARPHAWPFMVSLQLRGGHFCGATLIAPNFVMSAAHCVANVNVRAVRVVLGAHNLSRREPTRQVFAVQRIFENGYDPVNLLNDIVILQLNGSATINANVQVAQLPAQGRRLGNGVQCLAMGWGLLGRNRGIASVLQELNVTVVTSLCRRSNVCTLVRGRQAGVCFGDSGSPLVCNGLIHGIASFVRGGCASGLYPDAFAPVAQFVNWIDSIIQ
Experiment: HNE enzyme assay (human neutrophil elastase enzyme activity assay)
Format: biochemical
Settings: human leukocyte elastase 0.00072 U/mL; substrate MeOSuc-Ala-Ala-Pro-Val-AMC 100 μM; 25° C. for 30 minutes; at least two separate experiments; read-out: HNE inhibition (HNE enzyme inhibition, IC50 values)
Experimental: Compounds of the present invention were tested for potency in a human neutrophil elastase (HNE) enzyme activity assay.
Assays were performed in 96-well plates in a total assay volume of 100 μL. The final concentration of elastase enzyme (human leukocyte elastase, Sigma E8140) was 0.00072 U/mL. The peptide substrate (MeOSuc-Ala-Ala-Pro-Val-AMC, Calbiochem #324740) was used at a final concentration of 100 μM. The final concentration of DMSO was 1% in the assay buffer (0.05M Tris.HCl, 0.1M NaCl, 0.1M CaCl2, 0.0005% brij-35, pH 7.5). The enzymatic reaction was started by addition of the enzyme and incubated at 25° C. for 30 minutes. After incubation, the reaction was stopped by addition of soybean trypsin inhibitor (Sigma T9003) at a final concentration of 50 μg/well. Fluorescence was measured using a Molecular Devices fluorescence plate reader using 380 nm excitation and 460 nm emission wavelengths.
A dose response to each compound was performed and the effect of compound in each experiment was expressed as a percentage inhibition of the control enzyme fluorescence. Dose response curves were plotted and compound potency (IC50) was determined. Compounds were tested in at least two separate experiments.

| SMILES | IC50 |
| --- | --- |
| CCOC(=O)c1c(-c2ccnn2-c2ccc(C#N)cc2)n(C)n(-c2cccc(C(F)(F)F)c2)c1=O [Example 1, 2′-(4-Cyano-phenyl)-2-methyl-5-oxo-1-(3-trifluoromethyl-phenyl)-2,5-dihydro-1H,2′H-[3,3′]bipyrazolyl-4-carboxylic acid ethyl ester] | < 1 nM |
| CN1CCC(NC(=O)c2c(-c3ccnn3-c3ccc(C#N)cc3)n(C)n(-c3cccc(C(F)(F)F)c3)c2=O)CC1 [Example 2, 2′-(4-Cyano-phenyl)-2-methyl-5-oxo-1-(3-trifluoromethyl-phenyl)-2,5-dihydro-1H,2′H-[3,3′]bipyrazolyl-4-carboxylic acid (1-methyl-piperidin-4-yl)-amide] | 1 to 10 nM |
| CCNC(=O)c1c(-c2ccnn2-c2ccc(C#N)cc2)n(C)n(-c2cccc(C(F)(F)F)c2)c1=O [Example 3, 2′-(4-Cyano-phenyl)-2-methyl-5-oxo-1-(3-trifluoromethyl-phenyl)-2,5-dihydro-1H,2′H-[3,3′]bipyrazolyl-4-carboxylic acid ethylamide] | < 1 nM |
| Cn1c(-c2ccnn2-c2ccc(C#N)cc2)c(C(=O)N[C@@H]2C[C@@H]3CN(C(=O)OC(C)(C)C)C[C@@H]3C2)c(=O)n1-c1cccc(C(F)(F)F)c1 [Example 4, (3aS,5R,6aR)-5-{[2′-(4-Cyano-phenyl)-2-methyl-5-oxo-1-(3-trifluoromethyl-phenyl)-2,5-dihydro-1H,2′H-[3,3′]bipyrazolyl-4-carbonyl]-amino}-hexahydro-cyclopenta[c]pyrrole-2-carboxylic acid tert-butyl ester] | < 1 nM |
| C[C@H](NC(=O)c1c(-c2ccnn2-c2ccc(C#N)cc2)n(C)n(-c2cccc(C(F)(F)F)c2)c1=O)c1ncc(CN(C)C)o1 [Example 5, 2′-(4-Cyano-phenyl)-2-methyl-5-oxo-1-(3-trifluoromethyl-phenyl)-2,5-dihydro-1H,2′H-[3,3′]bipyrazolyl-4-carboxylic acid [(S)-1-(5-dimethylaminomethyl-oxazol-2-yl)-ethyl]-amide] | < 1 nM |
| CN(C)CC(=O)N1CCC(NC(=O)c2c(-c3ccnn3-c3ccc(C#N)cc3)n(C)n(-c3cccc(C(F)(F)F)c3)c2=O)CC1 [Example 6, 2′-(4-Cyano-phenyl)-2-methyl-5-oxo-1-(3-trifluoromethyl-phenyl)-2,5-dihydro-1H,2′H-[3,3′]bipyrazolyl-4-carboxylic acid [1-(2-dimethylamino-acetyl)-piperidin-4-yl]-amide] | < 1 nM |
| C[C@H](NC(=O)c1c(-c2ccnn2-c2ccc(C#N)cc2)n(C)n(-c2cccc(C(F)(F)F)c2)c1=O)C(=O)N(C)CC1CCN(C)CC1 [Example 7, 2′-(4-Cyano-phenyl)-2-methyl-5-oxo-1-(3-trifluoromethyl-phenyl)-2,5-dihydro-1H,2′H-[3,3′]bipyrazolyl-4-carboxylic acid {(S)-1-[methyl-(1-methyl-piperidin-4-ylmethyl)-carbamoyl]-ethyl}-amide] | < 1 nM |
| C[C@H](NC(=O)c1c(-c2ccnn2-c2ccc(C#N)cc2)n(C)n(-c2cccc(C(F)(F)F)c2)c1=O)c1nnc(CN(C)C)o1 [Example 8, 2′-(4-Cyano-phenyl)-2-methyl-5-oxo-1-(3-trifluoromethyl-phenyl)-2,5-dihydro-1H,2′H-[3,3′]bipyrazolyl-4-carboxylic acid [(S)-1-(5-dimethylaminomethyl-[1,3,4]oxadiazol-2-yl)-ethyl]-amide] | < 1 nM |
| CN1CCC(CN(C)C(=O)C(C)(C)NC(=O)c2c(-c3ccnn3-c3ccc(C#N)cc3)n(C)n(-c3cccc(C(F)(F)F)c3)c2=O)CC1 [Example 9, 2′-(4-Cyano-phenyl)-2-methyl-5-oxo-1-(3-trifluoromethyl-phenyl)-2,5-dihydro-1H,2′H-[3,3′]bipyrazolyl-4-carboxylic acid {1-methyl-1-[methyl-(1-methyl-piperidin-4-ylmethyl)-carbamoyl]-ethyl}-amide] | < 1 nM |
| CN(C)Cc1cnc(C(C)(C)NC(=O)c2c(-c3ccnn3-c3ccc(C#N)cc3)n(C)n(-c3cccc(C(F)(F)F)c3)c2=O)o1 [Example 10, 2′-(4-Cyano-phenyl)-2-methyl-5-oxo-1-(3-trifluoromethyl-phenyl)-2,5-dihydro-1H,2′H-[3,3′]bipyrazolyl-4-carboxylic acid [1-(5-dimethylaminomethyl-oxazol-2-yl)-1-methyl-ethyl]-amide] | < 1 nM |
| CC(C)[C@H](NC(=O)c1c(-c2ccnn2-c2ccc(C#N)cc2)n(C)n(-c2cccc(C(F)(F)F)c2)c1=O)c1ncc(CN(C)C)o1 [Example 11, 2′-(4-Cyano-phenyl)-2-methyl-5-oxo-1-(3-trifluoromethyl-phenyl)-2,5-dihydro-1H,2′H-[3,3′]bipyrazolyl-4-carboxylic acid [(S)-1-(5-dimethylaminomethyl-oxazol-2-yl)-2-methyl-propyl]-amide] | < 1 nM |
| CN1CCC(NC(=O)[C@H]2CC[C@H](NC(=O)c3c(-c4ccnn4-c4ccc(C#N)cc4)n(C)n(-c4cccc(C(F)(F)F)c4)c3=O)CC2)CC1 [Example 12, 2′-(Trans-4-cyano-phenyl)-2-methyl-5-oxo-1-(3-trifluoromethyl-phenyl)-2,5-dihydro-1H,2′H-[3,3′]bipyrazolyl-4-carboxylic acid [4-(1-methyl-piperidin-4-ylcarbamoyl)-cyclohexyl]-amide] | < 1 nM |
| CN1CCC(OC(=O)[C@H]2CC[C@H](NC(=O)c3c(-c4ccnn4-c4ccc(C#N)cc4)n(C)n(-c4cccc(C(F)(F)F)c4)c3=O)CC2)CC1 [Example 13, Trans-4-{[2′-(4-cyano-phenyl)-2-methyl-5-oxo-1-(3-trifluoromethyl-phenyl)-2,5-dihydro-1H,2′H-[3,3′]bipyrazolyl-4-carbonyl]-amino}-cyclohexanecarboxylic acid 1-methyl-piperidin-4-yl ester] | < 1 nM |
| CN(C)C1CCN(C(=O)[C@H]2CC[C@H](NC(=O)c3c(-c4ccnn4-c4ccc(C#N)cc4)n(C)n(-c4cccc(C(F)(F)F)c4)c3=O)CC2)CC1 [Example 14, 2′-(Trans-4-cyano-phenyl)-2-methyl-5-oxo-1-(3-trifluoromethyl-phenyl)-2,5-dihydro-1H,2′H-[3,3′]bipyrazolyl-4-carboxylic acid [4-(4-dimethylamino-piperidine-1-carbonyl)-cyclohexyl]-amide] | < 1 nM |
| CN(C)CCOC(=O)[C@H]1CC[C@H](NC(=O)c2c(-c3ccnn3-c3ccc(C#N)cc3)n(C)n(-c3cccc(C(F)(F)F)c3)c2=O)CC1 [Example 15, Trans-4-{[2′-(4-cyano-phenyl)-2-methyl-5-oxo-1-(3-trifluoromethyl-phenyl)-2,5-dihydro-1H,2′H-[3,3′]bipyrazolyl-4-carbonyl]-amino}-cyclohexanecarboxylic acid 2-dimethylamino-ethyl ester] | < 1 nM |
| CN(C)CC(=O)O[C@H]1CC[C@H](NC(=O)c2c(-c3ccnn3-c3ccc(C#N)cc3)n(C)n(-c3cccc(C(F)(F)F)c3)c2=O)CC1 [Example 16, Dimethylamino-acetic acid trans-4-{[2′-(4-cyano-phenyl)-2-methyl-5-oxo-1-(3-trifluoromethyl-phenyl)-2,5-dihydro-1H,2′H-[3,3′]bipyrazolyl-4-carbonyl]-amino}-cyclohexyl ester] | < 1 nM |
| C[C@H](NC(=O)c1c(-c2ccnn2-c2ccc(C#N)cc2)n(C)n(-c2cccc(C(F)(F)F)c2)c1=O)C(=O)N1CCCN(C)CC1 [Example 17, 2′-(4-Cyano-phenyl)-2-methyl-5-oxo-1-(3-trifluoromethyl-phenyl)-2,5-dihydro-1H,2′H-[3,3′]bipyrazolyl-4-carboxylic acid [(S)-1-methyl-2-(4-methyl-[1,4]diazepan-1-yl)-2-oxo-ethyl]-amide] | < 1 nM |
| Cn1c(-c2ccnn2-c2ccc(C#N)cc2)c(C(=O)NC2CC[N+](C)(C)CC2)c(=O)n1-c1cccc(C(F)(F)F)c1 [Example 18, 4-{[2′-(4-Cyano-phenyl)-2-methyl-5-oxo-1-(3-trifluoromethyl-phenyl)-2,5-dihydro-1H,2′H-[3,3′]bipyrazolyl-4-carbonyl]-amino}-1,1-dimethyl-piperidinium benzene sulphonate] | < 1 nM |
| C[C@H](NC(=O)c1c(-c2ccnn2-c2ccc(C#N)cc2)n(C)n(-c2cccc(C(F)(F)F)c2)c1=O)c1cc[n+](C)cc1 [Example 19, 4-((S)-1-{[2′-(4-Cyano-phenyl)-2-methyl-5-oxo-1-(3-trifluoromethyl-phenyl)-2,5-dihydro-1H,2′H-[3,3′]bipyrazolyl-4-carbonyl]-amino}-ethyl)-1-methyl-pyridinium benzene sulphonate] | < 1 nM |
| Cn1c(-c2ccnn2-c2ccc(C#N)cc2)c(C(=O)NCCC[N+](C)(C)C)c(=O)n1-c1cccc(C(F)(F)F)c1 [Example 20, (3-{[2′-(4-Cyano-phenyl)-2-methyl-5-oxo-1-(3-trifluoromethyl-phenyl)-2,5-dihydro-1H,2′H-[3,3′]bipyrazolyl-4-carbonyl]-amino}-propyl)-trimethyl-ammonium benzene sulphonate] | 1 to 10 nM |
